# Results published in PMC3252880, “Synthesis of 2-amino-3-arylpropan-1-ols and 1-(2,3-diaminopropyl)-1,2,3-triazoles and evaluation of their antimalarial activity” (Beilstein Journal of Organic Chemistry, 2011).
# Where “and” joins values, the source holds several entries; their conditions need not be identical. Equal entries are not always repeated. Where two headings read alike, the source gives them in different places.
# Tests used:
# [1] = test system: chloroquine-sensitive (CQS) strain of P. falciparum (D10); assay: in vitro antiplasmodial activity, chloroquine-sensitive strain D10; format: cell-based, Plasmodium falciparum; conditions: for antiplasmodial activity (in words): in vitro, P. falciparum
# Description: All samples were tested in triplicate on one occasion against a chloroquine-sensitive (CQS) strain of P. falciparum (D10). […] The antiplasmodial and cytotoxicity assays were performed as described previously.
# [2] = test system: Chinese hamster ovary (CHO) cell-line; assay: in vitro cytotoxicity against CHO cell-line; format: cell-based; conditions: for IC50: read-out: CHO: IC50; for SI (Selectivity Index) = IC50 CHO/IC50 D10: ratio CHO/D10
# Description: At first, compounds 6a–c, 8a–e, 9a–d, 12a,b, 14a–e, 15a–f and 16a–g were screened for in vitro antiplasmodial activity. All samples were tested in triplicate on one occasion against a chloroquine-sensitive (CQS) strain of P. falciparum (D10). Those samples showing antiplasmodial activity were then tested in triplicate on one occasion against a chloroquine-resistant (CQR) strain of P. falciparum (Dd2) and screened for in vitro cytotoxicity against a Chinese hamster ovary (CHO) cell-line, in triplicate on one occasion. The antiplasmodial and cytotoxicity assays were performed as described previously.
# [3] = test system: chloroquine-resistant (CQR) strain of P. falciparum (Dd2); assay: in vitro antiplasmodial activity, chloroquine-resistant strain Dd2; format: cell-based, Plasmodium falciparum; conditions: for RI (Resistance Index) = IC50 Dd2/IC50 D10: ratio Dd2/D10
# P. berghei = test system: P. berghei; parameters: method as in PMID 17194200, PMID 14500986; conditions: in vivo; cited from earlier work
# P. falciparum = test system: P. falciparum; parameters: method as in PMID 17194200, PMID 14500986; conditions: cited from earlier work
# [4] = CQS strain D10, tested in triplicate on one occasion, hydrophobic samples added as suspension, read-out: D10: IC50
# [5] = CHO cell-line, in triplicate on one occasion
# [6] = CQR strain Dd2, tested in triplicate on one occasion, read-out: Dd2: IC50
# [7] = Plasmodium falciparum, DD2, read-out: Dd2: IC50
# [8] = Plasmodium falciparum, D10, CQS strain D10, tested in triplicate on one occasion, hydrophobic samples added as suspension, read-out: D10: IC50
# [9] = Plasmodium falciparum, D10, read-out: D10: IC50, CQS strain D10, tested in triplicate on one occasion, hydrophobic samples added as suspension
# [10] = read-out: D10: IC50, CQS strain D10, tested in triplicate on one occasion, hydrophobic samples added as suspension
# [11] = Cricetulus griseus, CHO cell-line, in triplicate on one occasion
# [12] = Plasmodium falciparum, CQR strain Dd2, tested in triplicate on one occasion, read-out: Dd2: IC50
smiles,measurement,setting,value
COC(c1ccccc1)C(CO)NC(C)C (racemic) [Compound 8a],IC50,[1]; [4],370 µM
COC(c1ccccc1)C(CO)NCc1ccccc1 (racemic) [Compound 8b],IC50,[1]; [4],144 µM
COC(c1ccc(Cl)cc1)C(CO)NCc1ccccc1 (racemic) [Compound 8c],IC50,[1]; [4],199 µM
COc1ccc(C(OC)C(CO)NCC(C)C)cc1 (racemic) [Compound 8d],IC50,[1]; [4],38.6 µM
same,IC50,[2]; [5],> 530 µM
same,IC50,[3]; [6],25.7 µM
same,RI (Resistance Index) = IC50 Dd2/IC50 D10,[3],0.7
CCCNC(CO)C(OC)c1ccccc1F (racemic) [Compound 8e],IC50,[1]; [4],38.5 µM
same,IC50,[2]; [5],> 530 µM
same,IC50,[3]; [6],21.9 µM
same,RI (Resistance Index) = IC50 Dd2/IC50 D10,[3],0.6
OCC(NCc1ccccc1)C(O)c1ccccc1Cl (racemic) [Compound 9b],IC50,[1]; [4],≤ 25 µM and 21.2 µM
same,IC50,[2]; [5],> 530 µM
same,IC50,[3]; [6],13.6 µM
same,RI (Resistance Index) = IC50 Dd2/IC50 D10,[3],0.6
Cc1ccc(C(O)C(CO)NCc2ccccc2)cc1 (racemic) [Compound 9c],IC50,[1]; [4],130 µM
OCC(NCc1ccc(Cl)cc1)C(O)c1ccccc1 (racemic) [Compound 9d],IC50,[1]; [4],80.7 µM
"CCN(CC)CCCC(C)Nc1ccnc2cc(Cl)ccc12 (centres unmarked) [CQ, reference compound]",IC50,"[1]; Plasmodium falciparum, D10, read-out: D10: IC50, CQS strain D10, n = 6 data sets averaged",0.0191 µg/mL
same,IC50,[3]; [7],0.0756 µg/mL
same,RI (Resistance Index) = IC50 Dd2/IC50 D10,[3],3.9
OCC(Cc1ccc(Cl)cc1)NCc1ccccc1 (centres unmarked) [Compound 6a],IC50,[1]; [4],≤ 25 µM and 12.6 µM
same,IC50,[2]; [5],138 µM
same,SI (Selectivity Index) = IC50 CHO/IC50 D10,[2],11
same,IC50,[3]; [6],10.9 µM
same,RI (Resistance Index) = IC50 Dd2/IC50 D10,[3],0.9
COc1ccc(CC(CO)NCC(C)C)cc1 (centres unmarked) [Compound 6b],IC50,[1]; [4],282 µM
CCCNC(CO)Cc1ccccc1F (centres unmarked) [Compound 6c],IC50,[1]; [4],217 µM
"OCC(NCc1ccccc1)C(O)c1ccc(Cl)cc1 (stereo not drawn) [Compound 9a, anti-2-(N-Benzylamino)-1-(4-chlorophenyl)propan-1,3-diol]",IC50,[1]; [4],≤ 25 µM and 25.2 µM
same,IC50,[2]; [5],> 530 µM
same,IC50,[3]; [6],8.47 µM
same,RI (Resistance Index) = IC50 Dd2/IC50 D10,[3],0.3
"COc1ccccc1[C@@H](O)[C@@H](CO)NC(C)(C)C [Compound 12a, syn-2-(N-tert-Butylamino)-1-(2-methoxyphenyl)propan-1,3-diol]",IC50,[1]; [8],98.7 µM
same,melting point,,112.8 °C
CC(C)(C)N[C@H](CO)[C@H](O)c1ccccc1F [Compound 12b],IC50,[1]; [8],60.5 µM
"[N-]=[N+]=NCC1CN1Cc1ccccc1 (centres unmarked) [Compound 14a, 2-Azidomethyl-1-(phenylmethyl)aziridine]",IC50,[1]; [9],230 µM
same,IC50,"[2]; Cricetulus griseus, CHO",> 530 µM
same,IC50,[3]; [7],467 µM
same,RI (Resistance Index) = IC50 Dd2/IC50 D10,[3],2
[N-]=[N+]=NCC1CN1Cc1ccc(Cl)cc1 (centres unmarked) [Compound 14b],IC50,[1]; [4],101 µM
COc1ccc(CN2CC2CN=[N+]=[N-])cc1 (centres unmarked) [Compound 14c],IC50,[1]; [4],160 µM
[N-]=[N+]=NCC1CN1Cc1ccccc1Cl (centres unmarked) [Compound 14d],IC50,[1]; [4],93.7 µM
[N-]=[N+]=NCC1CN1Cc1cccc(Cl)c1 (centres unmarked) [Compound 14e],IC50,[1]; [4],180 µM
"c1ccc(CN2CC2Cn2cc(-c3ccccc3)nn2)cc1 (centres unmarked) [Compound 15a, 1-Phenylmethyl-2-[(4-phenyl-1,2,3-triazol-1-yl)methyl]aziridine]",IC50,[1]; [9],34.4 µM
same,IC50,"[2]; Cricetulus griseus, CHO",> 530 µM
same,IC50,[3]; [7],107 µM
same,RI (Resistance Index) = IC50 Dd2/IC50 D10,[3],3.1
Clc1ccc(CN2CC2Cn2cc(-c3ccccc3)nn2)cc1 (centres unmarked) [Compound 15b],IC50,[1]; [4],41.3 µM
COc1ccc(CN2CC2Cn2cc(-c3ccccc3)nn2)cc1 (centres unmarked) [Compound 15c],IC50,[1]; [9],≤ 25 µM
same,antiplasmodial activity (in words),[1],weak antiplasmodial activity
same,IC50,[1]; [10],25.7 µM
same,IC50,"[2]; Cricetulus griseus, CHO",> 530 µM
same,IC50,[3]; [7],55.6 µM
same,RI (Resistance Index) = IC50 Dd2/IC50 D10,[3],2.2
Cc1ccc(-c2cn(CC3CN3Cc3ccccc3)nn2)cc1 (centres unmarked) [Compound 15d],IC50,[1]; [9],≤ 25 µM
same,antiplasmodial activity (in words),[1],weak antiplasmodial activity
same,IC50,[1]; [10],20.4 µM
same,IC50,"[2]; Cricetulus griseus, CHO",> 530 µM
same,IC50,[3]; [7],21 µM
same,RI (Resistance Index) = IC50 Dd2/IC50 D10,[3],1
COc1ccc(-c2cn(CC3CN3Cc3ccccc3)nn2)cc1 (centres unmarked) [Compound 15e],IC50,[1]; [9],40.5 µM
"CCN(CC)CC(Cn1cc(-c2ccccc2)nn1)NCc1ccccc1 (centres unmarked) [Compound 16a, 3-Diethylamino-2-(phenylmethyl)amino-1-(4-phenyl-1,2,3-triazol-1-yl)propane]",IC50,[1]; [4],22.1 µM
same,IC50,[1]; [8],≤ 25 µM
same,IC50,[2]; [11],> 530 µM
same,IC50,[3]; [12],231 µM
same,RI (Resistance Index) = IC50 Dd2/IC50 D10,[3],10.5
CCN(CC)CC(Cn1cc(-c2ccccc2)nn1)NCc1ccc(Cl)cc1 (centres unmarked) [Compound 16b],IC50,[1]; [4],≤ 25 µM and 25.9 µM
same,IC50,[2]; [5],> 530 µM
same,IC50,[3]; [6],176 µM
same,RI (Resistance Index) = IC50 Dd2/IC50 D10,[3],6.8
CCN(CC)CC(Cn1cc(-c2ccccc2)nn1)NCc1ccc(OC)cc1 (centres unmarked) [Compound 16c],IC50,[1]; [4],140 µM
CCN(CC)CC(Cn1cc(-c2ccc(C)cc2)nn1)NCc1ccccc1 (centres unmarked) [Compound 16d],IC50,[1]; [4],32.5 µM
CCN(CC)CC(Cn1cc(-c2ccc(OC)cc2)nn1)NCc1ccccc1 (centres unmarked) [Compound 16e],IC50,[1]; [8],171 µM
CN(C)CC(Cn1cc(-c2ccccc2)nn1)NCc1ccccc1Cl (centres unmarked) [Compound 16f],IC50,[2]; [11],182 µM
same,SI (Selectivity Index) = IC50 CHO/IC50 D10,[2],16.1
same,IC50,[3]; [12],13 µM
same,RI (Resistance Index) = IC50 Dd2/IC50 D10,[3],1.2
CN(C)CC(Cn1cc(-c2ccccc2)nn1)NCc1ccccc1 (centres unmarked) [Compound 16g],IC50,[1]; [4],69.6 µM
"CC[C@H]1CN2CCc3cc(OC)c(OC)cc3[C@@H]2C[C@@H]1C[C@H]1NCCc2cc(OC)c(OC)cc21 [Emetine, reference compound]",IC50,[2]; [11],0.27 µM
CC(C)NCC(O)COc1cccc2ccccc12 (centres unmarked) [propranolol],parasitaemia of P. berghei infections,P. berghei,reduce the parasitaemia
same,infection of erythrocytes by P. falciparum,P. falciparum,inhibit infection of erythrocytes
